Results published in patent publication US6180356A (priority 1998, dated 2001).

Tests used:
[1] = biological target: T domain of diphtheria toxin (Corynephage beta, UniProt P00588); experiment: biochemical; type: biochemical, Corynebacterium diphtheriae; conditions: for inhibition at 10 µM: read-out: inhibition of T domain membrane pore formation; for quenching of 3 kD CB-dextran: control without inhibitor about 70%
diphtheria toxin = diphtheria toxin (Corynephage beta, UniProt P00588); experiment: biochemical; type: biochemical, Corynebacterium diphtheriae; conditions: for inhibition of 3 kD dextran release / pore formation: relative to release in absence of target agent; for inhibition of membrane pore formation (in words): whole diphtheria toxin; for quenching of the fluorescence of the 3 kD dextran: 10 μM inhibitor added before toxin, 3 kD CB-dextran, pH 4.5, control without agent about 75%; for inhibition at 10 µM: read-out: inhibition of 3 kD dextran release / pore formation
Chain of diphtheria toxin (P00588 33-567 limits assumed): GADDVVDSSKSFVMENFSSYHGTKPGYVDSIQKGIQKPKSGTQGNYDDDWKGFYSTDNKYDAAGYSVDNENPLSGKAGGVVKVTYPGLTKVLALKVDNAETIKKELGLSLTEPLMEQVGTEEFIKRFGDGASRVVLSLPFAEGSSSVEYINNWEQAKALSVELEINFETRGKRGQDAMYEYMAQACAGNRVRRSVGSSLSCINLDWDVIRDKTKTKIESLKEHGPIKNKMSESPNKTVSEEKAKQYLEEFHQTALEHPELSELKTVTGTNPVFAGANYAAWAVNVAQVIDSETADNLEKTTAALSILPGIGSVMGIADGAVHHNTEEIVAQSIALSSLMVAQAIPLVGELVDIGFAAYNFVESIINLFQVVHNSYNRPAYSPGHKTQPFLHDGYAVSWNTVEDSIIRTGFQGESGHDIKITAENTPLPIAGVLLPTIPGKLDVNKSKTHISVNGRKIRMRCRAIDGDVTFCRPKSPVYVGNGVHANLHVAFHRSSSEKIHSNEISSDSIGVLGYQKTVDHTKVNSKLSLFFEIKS

[2] = system: diphtheria toxin translocation across Vero cell membranes; conditions: Falnes and Olsnes 1995; cited from earlier work
[3] = 10 μM inhibitor, about 5 μg of T domain
[4] = 10 μM inhibitor, 1.0 μg of toxin

Chain of T domain of diphtheria toxin (P00588 234-410 limits assumed): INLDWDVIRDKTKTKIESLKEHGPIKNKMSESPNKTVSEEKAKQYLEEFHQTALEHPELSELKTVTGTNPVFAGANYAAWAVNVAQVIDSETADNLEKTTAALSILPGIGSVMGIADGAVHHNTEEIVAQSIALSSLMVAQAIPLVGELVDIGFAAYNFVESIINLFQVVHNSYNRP

Compound | inhibition of T domain membrane pore formation (in words) [1, 3] | inhibition of membrane pore formation (in words) (diphtheria toxin; 10 μM inhibitor) | inhibition of diphtheria toxin translocation [2] | quenching of the fluorescence of the 3 kD dextran (diphtheria toxin; 1.0 μg of toxin) | other results
Nc1c(S(=O)(=O)O)cc(Nc2ccc(Nc3nc(Cl)nc(Nc4ccccc4S(=O)(=O)O)n3)c(S(=O)(=O)O)c2)c2c1C(=O)c1ccccc1C2=O [Cibacron Blue, Cibacron Blue F3G-A] | somewhat less inhibition | Strong inhibition | inhibitors of diphtheria toxin translocation |  | inhibition at 10 µM [1]: ~22%; quenching for all the dextrans (diphtheria toxin; 10 μM inhibitor, 1.0 μg of toxin, all the dextrans): 0%; inhibition of 3 kD dextran release / pore formation (diphtheria toxin; [4]): completely inhibited
O=C(Nc1cc(S(=O)(=O)[O-])cc2cc(S(=O)(=O)[O-])c(N=Nc3cc(Nc4nc(Cl)nc(Nc5ccc(S(=O)(=O)[O-])cc5)n4)ccc3S(=O)(=O)[O-])c(O)c12)c1ccccc1.[Na+].[Na+].[Na+].[Na+] [Cibacron Red, Cibacron brilliant red 3B-A] | strong inhibition | strong inhibition |  | 0% | inhibition of T domain membrane pore formation ([1]; 10 μM inhibitor, about 5 μg of T domain, 3 kD CB-dextran): 87%; quenching of 3 kD CB-dextran [1, 3]: about 9%; inhibition of 3 kD dextran release / pore formation (diphtheria toxin; [4]): 100%
O=S(=O)(O)c1cc(N=C=S)ccc1/C=C/c1ccc(N=C=S)cc1S(=O)(=O)O [DIDS] |  |  | inhibitors of diphtheria toxin translocation |  | 
COc1cc(S(=O)(=O)O)c2ccc3c(S(=O)(=O)O)cc(S(=O)(=O)O)c4ccc1c2c43 [MPT, 8-methoxy-pyrene 1,3,6-trisulfonic acid] |  |  |  |  | diphtheria toxin pore formation inhibited (in words) (diphtheria toxin; MPT as entrapped reporter, higher toxin concentrations, MPT released less than 3 kD CB-dextran): inhibited
CCN1C(=O)C=CC1=O [NEM] |  |  | inhibitors of diphtheria toxin translocation |  | 
O=S(=O)(O)c1ccc(N=Nc2ccc(N=Nc3c(O)c(S(=O)(=O)O)cc4cc(S(=O)(=O)O)ccc34)c(S(=O)(=O)O)c2)cc1 [Ponceau S, 3-hydroxy-4-[2-sulfo-4(4-sulfophenylazo)phenylazo]-2,7-naphthalenedisulfonic acid] | strong inhibition | moderate inhibition |  | about 25% | quenching of 3 kD CB-dextran [1, 3]: about 20%; inhibition at 10 µM [1]: ~70%; inhibition at 10 µM (diphtheria toxin): ~67%
O=S(=O)([O-])c1ccc2c(N=Nc3ccc(S(=O)(=O)[O-])c4ccccc34)c(O)c(S(=O)(=O)[O-])cc2c1.[Na+].[Na+].[Na+] [amaranth, 3-Hydroxy-4-[(4-sulfo-1-naphthalenyl)azo]2,7-naphthalenedisulfonic acid trisodium salt] |  | weak inhibitor |  | about 50% | inhibition at 10 µM (diphtheria toxin): ~30%
